# From the supplement of paper PMC10733146
# Columns and labels:
# Assay in all cases: viability relative to DMSO control (fraction); higher = less drug effect (more viable cells)
# Settings in all cases: 48 h
# Palbociclib = compound: CC(=O)c1c(C)c2cnc(Nc3ccc(N4CCNCC4)cn3)nc2n(C2CCCC2)c1=O [Palbociclib]
# In short: (§1)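 In 384-well plates with compounds pre-plated at five concentrations (one well per concentration), primary mononuclear tumour cells were plated at 4 × 10^4 cells per well. The cells came from blood or bone marrow by Ficoll isolation or from processed lymph node, and were used fresh or cryopreserved. Culture ran for 48 h at 37 °C and 5% CO2 in RPMI-1640 containing penicillin/streptomycin, L-glutamine and human serum. Viability was read as CellTiter-Glo luminescence, normalised to the median of 16 inner DMSO wells.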
# Venetoclax = compound: CC1(C)CCC(CN2CCN(c3ccc(C(=O)NS(=O)(=O)c4ccc(NCC5CCOCC5)c([N+](=O)[O-])c4)c(Oc4cnc5[nH]ccc5c4)c3)CC2)=C(c2ccc(Cl)cc2)C1 [Venetoclax]
# In short: as §1
# Navitoclax = compound: CC1(C)CCC(c2ccc(Cl)cc2)=C(CN2CCN(c3ccc(C(=O)NS(=O)(=O)c4ccc(N[C@H](CCN5CCOCC5)CSc5ccccc5)c(S(=O)(=O)C(F)(F)F)c4)cc3)CC2)C1 [Navitoclax]
# In short: as §1
# EPZ-6438 = compound: CCN(c1cc(-c2ccc(CN3CCOCC3)cc2)cc(C(=O)NCc2c(C)cc(C)[nH]c2=O)c1C)C1CCOCC1 [EPZ-6438]
# In short: as §1
# I-BET-762 = compound: CCNC(=O)C[C@@H]1N=C(c2ccc(Cl)cc2)c2cc(OC)ccc2-n2c(C)nnc21 [I-BET-762]
# In short: as §1
# CPI-169 = compound: CCS(=O)(=O)N1CCC([C@@H](C)n2c(C)c(C(=O)NCc3c(OC)cc(C)[nH]c3=O)c3ccccc32)CC1 [CPI-169]
# In short: as §1
# [1] = compound: CCc1ccc(/C=C2/SC(=S)NC2=O)cc1
# In short: as §1
# Selinexor = compound: O=C(/C=C\n1cnc(-c2cc(C(F)(F)F)cc(C(F)(F)F)c2)n1)NNc1cnccn1 [Selinexor]
# In short: as §1
# [2] = compound: O=C(NO)c1cccc(C(=O)NCCc2ccccc2)c1
# In short: as §1
# Filgotinib = compound: O=C(Nc1nc2cccc(-c3ccc(CN4CCS(=O)(=O)CC4)cc3)n2n1)C1CC1 [Filgotinib]
# In short: as §1
# Thalidomide = compound: O=C1CCC(N2C(=O)c3ccccc3C2=O)C(=O)N1 [Thalidomide]
# In short: as §1
# Barasertib = compound: CCN(CCCOc1ccc2c(Nc3cc(CC(=O)Nc4cccc(F)c4)[nH]n3)ncnc2c1)CCOP(=O)(O)O [Barasertib]
# In short: as §1
# [3] = compound: C[C@H](NC(=O)CCC(F)(F)F)C(=O)N[C@@H]1C(=O)N(CCO)c2ncccc2-c2ccccc21
# In short: as §1
# [4] = compound: C[C@H]1C[C@@H](n2c(Nc3ccc(OC(F)(F)F)cc3)nc3cc(CCC(=O)O)ccc32)CC(C)(C)C1
# In short: as §1
test system,measurement,setting,value
primary DLBCL patient cells (S076),viability,Palbociclib; 0.024 µM,1.14
same,viability,Palbociclib; 0.12 µM,1.14
same,viability,Palbociclib; 0.6 µM,0.991
same,viability,Palbociclib; 3 µM,0.647
same,viability,Palbociclib; 15 µM,0.221
same,viability,Venetoclax; 0.00064 µM,1.09
same,viability,Venetoclax; 0.0032 µM,1.01
same,viability,Venetoclax; 0.016 µM,0.622
same,viability,Venetoclax; 0.08 µM,0.451
same,viability,Venetoclax; 0.4 µM,0.374
same,viability,Navitoclax; 0.0032 µM,1.07
same,viability,Navitoclax; 0.016 µM,0.95
same,viability,Navitoclax; 0.08 µM,0.689
same,viability,Navitoclax; 0.4 µM,0.279
same,viability,Navitoclax; 2 µM,0.15
same,viability,EPZ-6438; 0.024 µM,1.13
same,viability,EPZ-6438; 0.12 µM,1.09
same,viability,EPZ-6438; 0.6 µM,1.18
same,viability,EPZ-6438; 3 µM,1.17
same,viability,EPZ-6438; 15 µM,1.03
same,viability,I-BET-762; 0.008 µM,1.08
same,viability,I-BET-762; 0.04 µM,1.04
same,viability,I-BET-762; 0.2 µM,0.94
same,viability,I-BET-762; 1 µM,0.82
same,viability,I-BET-762; 5 µM,0.738
same,viability,CPI-169; 0.024 µM,1.04
same,viability,CPI-169; 0.12 µM,1.04
same,viability,CPI-169; 0.6 µM,1.07
same,viability,CPI-169; 3 µM,0.993
same,viability,CPI-169; 15 µM,1.05
same,viability,[1]; 0.024 µM,0.949
same,viability,[1]; 0.12 µM,0.942
same,viability,[1]; 0.6 µM,1.07
same,viability,[1]; 3 µM,0.995
same,viability,[1]; 15 µM,0.942
same,viability,Selinexor; 0.008 µM,0.97
same,viability,Selinexor; 0.04 µM,0.943
same,viability,Selinexor; 0.2 µM,0.819
same,viability,Selinexor; 1 µM,0.563
same,viability,Selinexor; 5 µM,0.331
same,viability,[2]; 0.024 µM,1.15
same,viability,[2]; 0.12 µM,1.12
same,viability,[2]; 0.6 µM,1.09
same,viability,[2]; 3 µM,1.13
same,viability,[2]; 15 µM,1.17
same,viability,Filgotinib; 0.024 µM,1.02
same,viability,Filgotinib; 0.12 µM,1.03
same,viability,Filgotinib; 0.6 µM,0.966
same,viability,Filgotinib; 3 µM,0.911
same,viability,Filgotinib; 15 µM,0.348
same,viability,Thalidomide; 0.032 µM,1.06
same,viability,Thalidomide; 0.16 µM,0.993
same,viability,Thalidomide; 0.8 µM,1.09
same,viability,Thalidomide; 4 µM,1.11
same,viability,Thalidomide; 20 µM,1.06
primary DLBCL patient cells (S049),viability,Palbociclib; 0.024 µM,0.999
same,viability,Palbociclib; 0.12 µM,0.968
same,viability,Palbociclib; 0.6 µM,0.88
same,viability,Palbociclib; 3 µM,0.496
same,viability,Palbociclib; 15 µM,0.0932
same,viability,Venetoclax; 0.00064 µM,0.898
same,viability,Venetoclax; 0.0032 µM,0.593
same,viability,Venetoclax; 0.016 µM,0.149
same,viability,Venetoclax; 0.08 µM,0.0521
same,viability,Venetoclax; 0.4 µM,0.0447
same,viability,Navitoclax; 0.0032 µM,1
same,viability,Navitoclax; 0.016 µM,0.834
same,viability,Navitoclax; 0.08 µM,0.375
same,viability,Navitoclax; 0.4 µM,0.0676
same,viability,Navitoclax; 2 µM,0.0439
same,viability,EPZ-6438; 0.024 µM,1.08
same,viability,EPZ-6438; 0.12 µM,1.08
same,viability,EPZ-6438; 0.6 µM,1.03
same,viability,EPZ-6438; 3 µM,1.05
same,viability,EPZ-6438; 15 µM,0.811
same,viability,I-BET-762; 0.008 µM,0.982
same,viability,I-BET-762; 0.04 µM,1.02
same,viability,I-BET-762; 0.2 µM,0.987
same,viability,I-BET-762; 1 µM,0.552
same,viability,I-BET-762; 5 µM,0.246
same,viability,CPI-169; 0.024 µM,1.03
same,viability,CPI-169; 0.12 µM,1.02
same,viability,CPI-169; 0.6 µM,1.05
same,viability,CPI-169; 3 µM,0.991
same,viability,CPI-169; 15 µM,0.97
same,viability,[1]; 0.024 µM,0.744
same,viability,[1]; 0.12 µM,0.798
same,viability,[1]; 0.6 µM,0.902
same,viability,[1]; 3 µM,0.873
same,viability,[1]; 15 µM,0.737
same,viability,Selinexor; 0.008 µM,0.54
same,viability,Selinexor; 0.04 µM,0.486
same,viability,Selinexor; 0.2 µM,0.499
same,viability,Selinexor; 1 µM,0.669
same,viability,Selinexor; 5 µM,0.586
same,viability,[2]; 0.024 µM,0.886
same,viability,[2]; 0.12 µM,0.986
same,viability,[2]; 0.6 µM,0.966
same,viability,[2]; 3 µM,1.02
same,viability,[2]; 15 µM,1.05
same,viability,Filgotinib; 0.024 µM,0.918
same,viability,Filgotinib; 0.12 µM,0.969
same,viability,Filgotinib; 0.6 µM,1.03
same,viability,Filgotinib; 3 µM,0.926
same,viability,Filgotinib; 15 µM,0.203
same,viability,Thalidomide; 0.032 µM,0.902
same,viability,Thalidomide; 0.16 µM,0.864
same,viability,Thalidomide; 0.8 µM,0.918
same,viability,Thalidomide; 4 µM,0.968
same,viability,Thalidomide; 20 µM,1.03
primary AML patient cells (S025),viability,Palbociclib; 0.024 µM,1.01
same,viability,Palbociclib; 0.12 µM,0.969
same,viability,Palbociclib; 0.6 µM,0.934
same,viability,Palbociclib; 3 µM,0.851
same,viability,Palbociclib; 15 µM,0.809
same,viability,Venetoclax; 0.00064 µM,0.975
same,viability,Venetoclax; 0.0032 µM,0.762
same,viability,Venetoclax; 0.016 µM,0.458
same,viability,Venetoclax; 0.08 µM,0.277
same,viability,Venetoclax; 0.4 µM,0.201
same,viability,Navitoclax; 0.0032 µM,1.19
same,viability,Navitoclax; 0.016 µM,0.89
same,viability,Navitoclax; 0.08 µM,0.526
same,viability,Navitoclax; 0.4 µM,0.218
same,viability,Navitoclax; 2 µM,0.123
same,viability,Barasertib; 0.0008 µM,1
same,viability,Barasertib; 0.004 µM,1
same,viability,Barasertib; 0.02 µM,0.907
same,viability,Barasertib; 0.1 µM,0.836
same,viability,Barasertib; 0.5 µM,0.82
same,viability,EPZ-6438; 0.024 µM,0.985
same,viability,EPZ-6438; 0.12 µM,1.07
same,viability,EPZ-6438; 0.6 µM,1.02
same,viability,EPZ-6438; 3 µM,0.984
same,viability,EPZ-6438; 15 µM,0.923
same,viability,I-BET-762; 0.008 µM,0.928
same,viability,I-BET-762; 0.04 µM,1.03
same,viability,I-BET-762; 0.2 µM,1.03
same,viability,I-BET-762; 1 µM,0.817
same,viability,I-BET-762; 5 µM,0.705
same,viability,CPI-169; 0.024 µM,0.866
same,viability,CPI-169; 0.12 µM,0.926
same,viability,CPI-169; 0.6 µM,0.902
same,viability,CPI-169; 3 µM,1.12
same,viability,CPI-169; 15 µM,1.12
same,viability,[1]; 0.024 µM,1
same,viability,[1]; 0.12 µM,0.969
same,viability,[1]; 0.6 µM,0.956
same,viability,[1]; 3 µM,1.01
same,viability,[1]; 15 µM,0.98
same,viability,[3]; 0.016 µM,0.997
same,viability,[3]; 0.08 µM,1.11
same,viability,[3]; 0.4 µM,1.01
same,viability,[3]; 2 µM,1.07
same,viability,[3]; 10 µM,0.924
same,viability,[4]; 0.024 µM,0.95
same,viability,[4]; 0.12 µM,0.877
same,viability,[4]; 0.6 µM,0.941
same,viability,[4]; 3 µM,0.768
same,viability,[4]; 15 µM,0.817
same,viability,Selinexor; 0.008 µM,0.887
same,viability,Selinexor; 0.04 µM,0.823
same,viability,Selinexor; 0.2 µM,0.75
same,viability,Selinexor; 1 µM,0.439
same,viability,Selinexor; 5 µM,0.514
same,viability,[2]; 0.024 µM,0.917
same,viability,[2]; 0.12 µM,1.04
same,viability,[2]; 0.6 µM,0.945
same,viability,[2]; 3 µM,0.979
same,viability,[2]; 15 µM,1.05
same,viability,Filgotinib; 0.024 µM,0.973
same,viability,Filgotinib; 0.12 µM,0.971
same,viability,Filgotinib; 0.6 µM,0.899
same,viability,Filgotinib; 3 µM,0.904
same,viability,Filgotinib; 15 µM,0.503
primary AML patient cells (S055),viability,EPZ-6438; 0.024 µM,1.01
same,viability,EPZ-6438; 0.12 µM,1.04
same,viability,EPZ-6438; 0.6 µM,0.976
same,viability,EPZ-6438; 3 µM,0.97
same,viability,EPZ-6438; 15 µM,0.917
same,viability,CPI-169; 0.024 µM,0.982
same,viability,CPI-169; 0.12 µM,0.989
same,viability,CPI-169; 0.6 µM,1.07
same,viability,CPI-169; 3 µM,1.03
same,viability,CPI-169; 15 µM,1
same,viability,[3]; 0.016 µM,1.05
same,viability,[3]; 0.08 µM,1.09
same,viability,[3]; 0.4 µM,1.06
same,viability,[3]; 2 µM,1.08
same,viability,[3]; 10 µM,1
same,viability,[4]; 0.024 µM,0.953
same,viability,[4]; 0.12 µM,1.03
same,viability,[4]; 0.6 µM,0.997
same,viability,[4]; 3 µM,0.923
same,viability,[4]; 15 µM,0.994
same,viability,Selinexor; 0.008 µM,0.92
same,viability,Selinexor; 0.04 µM,0.861
same,viability,Selinexor; 0.2 µM,0.833
same,viability,Selinexor; 1 µM,0.575
same,viability,Selinexor; 5 µM,0.535
same,viability,[2]; 0.024 µM,0.923
same,viability,[2]; 0.12 µM,1.01
same,viability,[2]; 0.6 µM,0.907
same,viability,[2]; 3 µM,0.975
same,viability,[2]; 15 µM,0.997
same,viability,Filgotinib; 0.024 µM,0.942
same,viability,Filgotinib; 0.12 µM,0.936
same,viability,Filgotinib; 0.6 µM,0.959
same,viability,Filgotinib; 3 µM,0.916
same,viability,Filgotinib; 15 µM,0.594
same,viability,Thalidomide; 0.032 µM,0.916
same,viability,Thalidomide; 0.16 µM,0.94
same,viability,Thalidomide; 0.8 µM,0.894
same,viability,Thalidomide; 4 µM,0.931
same,viability,Thalidomide; 20 µM,0.876
